Assay [1] deals with AF EGMs in HF. As to the kind of experiment: Acute ROS blockade during induced AF in pacing-induced HF dogs, epicardial AF EGM mapping. The format is in vivo, dog. The settings on record: for effect on AF EGM parameters (DF, OI, FI, ShEn): apocynin 10 mg/kg. Here is the method: HF: In 4 animals, rapid RV pacing was performed at 240 beats/min for 3-4 weeks to induce HF. AF was then induced and AF EGMs recorded by an epicardial, multielectrode plaque (130 electrodes; […]). Apocynin (an NAPDH oxidase inhibitor) was then given (10 mg/kg) acutely. After apocynin administration, AF slowed and then terminated within 5 minutes (in every experiment). […] After apocynin washout (90 minutes), AF was re-induced and mito-TEMPO was given (0.7 mg/kg). […] The atrial tissue was then removed and examined for O^2- generation using lucigenin chemiluminescence. […] Thus, AF EGMs in HF are very sensitive to acute blockade of NADPH oxidase and mitochondrial ROS and AF EGM organization in response to ROS blockade closely correlates with the amount of O^2- in underlying tissue.

In assay [2] the test system is AF EGMs in HF. As to the kind of experiment: EGM-guided targeted gene injection at ROS responsive PLA quadrant in HF dog, AF EGM mapping. The format is in vivo. The settings on record: one HF dog, given during AF, 10 mg/kg, before gene injection. How it is done: In one dog, HF was induced by RV pacing at 240 bpm×3 weeks. AF was then induced and recorded in the PLA by high density epicardial plaques (130 electrodes; […]). […] Real time analysis of AF EGMs was performed. The PLA was divided into 4 equal quadrants as shown in FIG. 15A and AF characteristics analyzed for each quadrant. […] One week later, AF mapping was performed again, in the absence and presence of apocynin. […] NOX2 expression (assessed by RT-PCR) was 70% lower in the injected quadrant than in neighboring, un-injected PLA.

The next assay deals with AF EGMs in a RAP model. The assay is described as follows: Acute ROS blockade in rapid atrial pacing (RAP) persistent AF model, AF EGM mapping. The format is in vivo, dog. Here is the method:
RAP: In 2 animals, rapid atrial pacing was performed at 600 bpm for 3-4 weeks to induce persistent AF. Apocynin was given as in HF above.

Where [3] appears, read: HF dogs, induced AF, mito-TEMPO 0.7 mg/kg.
Where [4] appears, read: RAP dogs (600 bpm, 3-4 weeks), persistent AF, apocynin given as in HF.

The values that follow come from patent publication US9907479B2, “Contribution of oxidative stress to AF electrograms” (NORTHWESTERN UNIVERSITY, priority 2013, dated 2018).

Some results are limits rather than exact numbers.

For `CC1(C)CC(NC(=O)C[P+](c2ccccc2)(c2ccccc2)c2ccccc2)CC(C)(C)N1[O]` [mito-TEMPO], the “effect on AF (slowing, termination)” value in the assay with AF EGMs in HF [1] (HF dogs, AF re-induced after apocynin washout (90 minutes), mito-TEMPO 0.7 mg/kg) is “gradual slowing and termination of AF in every animal”. Also, in the assay on AF EGMs in HF [1] (setting [3]), the “effect on AF EGM parameters (DF, OI, FI, ShEn)” value is reported as “organization of all AF EGM parameters”.

Consider `COc1cc(C(C)=O)ccc1O` [apocynin, Apocynin], for which the “effect on AF” value in the assay on AF EGMs in HF [2] is recorded as “organization of AF followed by AF termination”. The “time to AF termination after administration” value in the assay with AF EGMs in HF [1] (HF dogs (RV pacing 240 beats/min, 3-4 weeks), induced AF, 10 mg/kg given acutely, in every experiment) was at most 5 min. Further, the “effect on AF EGM parameters (DF, OI, FI, ShEn)” value in the assay on AF EGMs in HF [1] (setting [3]) was “organization of all AF EGM parameters”. Also, in the assay on AF EGMs in a RAP model (setting [4]), the “change in DF” value is given as “significant decrease” and the “change in OI” value is “increase”. Moreover, the “termination of AF” value with AF EGMs in a RAP model (RAP dogs, 2 animals) was “In one animal, there was termination of AF”.
